Earlier results on four substances are cited in patent publication US4994542A, “Surgical adhesive” (Asahi Glass Co., Ltd., priority 1988, dated 1991).

The conditions of data set [1]: aromatic polyisocyanates, general statement.
The conditions of data set [2]: hydrolysis products of TDI and MDI.

In the case of diphenylmethane diisocyanates [MDI], the mutagenic activity entry in data set [1] is given as “high mutagenic activity”.

Consider tolylene diisocyanates [TDI], for which the mutagenic activity entry in data set [1] is “high mutagenic activity”.

Regarding tolylene diamine, the “activity in a microbial mutagenicity test (Ames test)” value in data set [2] is on record as “high activity”.

diaminodiphenylmethane: the “activity in a microbial mutagenicity test (Ames test)” value in data set [2] is “high activity”.
